Data as given in patent publication US4232150A, “Oligosaccharide precursors to substituted O-α-D and O-β-D-multigalactopyranosyl and glucopyranosyl 1→4 and 1→6 galactopyranosyl 1→6α-D-glucopyranoses” (American Cyanamid Company, priority 1979, dated 1980).
Where a name gives a salt, the structure may show the parent alone.

How the values were obtained:
[1] = tested on: complement system; settings: cited from earlier work
[2] = tested on: hereditary angioneurotic edema; settings: in vivo; cited from earlier work
[3] = target: T1, activated human C1 (Homo sapiens, UniProt P09871); experiment: Test Code 026 (C1 inhibitor); type: biochemical; settings: serial twofold dilution assay; higher well number indicates higher activity
T1 construct: functional test of fluid-phase human C2 destruction in presence of C4
Description: (§1) An active inhibitor protects C2 from C1 and C4; (ii) Test Cod3 035 (3-C9 inhibitor)--This test determines the ability of the late components of human complement (C3-C9) to lyse EAC 142 in the presence of appropriate dilutions of the test compound. An active inhibitor protects EAC 142 from lysis by human C3-C9; (iii) Test Code 036 (C-Shunt inhibitor)--In this test human erythrocytes rendered fragile are lysed in autologous serum via the shunt pathway activated by cobra venom factor in the presence of appropriate dilutions of the test compound. Inhibition of the shunt pathway results in failure of lysis; (iv) Forssman Vasculitis Test--Here, the well known complement dependent lesion, Forssman vasculitis, is produced in guinea pigs by intradermal injection of rabbit anti-Forssman antiserum. The lesion is measured in terms of diameter, edema and hemorrhage and the extent to which a combined index of these is inhibited by prior intraperitoneal injection of the test compound at 200 mg/kg is then reported, unless otherwise stated; (v) Forssman Shock Test--Lethal shock is produced in guinea pigs by an i.v. injection of anti-Forssman antiserum and the harmonic mean death time of treated guinea pigs is compared with that of simultaneous controls; (vi) Complement Level Reduction Test--In this test, the above dosed guinea pigs, or others, are bled for serum and the complement level is determined in undiluted serum by the capillary tube method of U.S. Pat. No. 3,876,376 and compared to undosed control guinea pigs; (vii) Cap 50 Test--Here, appropriate amounts of the test compound are added to a pool of guinea pig serum in vitro, after which the undiluted serum capillary tube assay referred to above is run. The concentration of compound inhibiting 50% is reported;
(§2) **Activity in wells, a serial dilution assay; higher well number indicate
(§3) higher activity. The serial dilutions are twofold

[4] = tested on: late components of human complement (C3-C9); experiment: Test Code 035 (C3-C9 inhibitor; C-Late), lysis of EAC 142; type: cell-based; settings: serial twofold dilution assay; higher well number indicates higher activity
Description: as §1, §2, §3

[5] = tested on: shunt pathway activated by cobra venom factor; experiment: Test Code 036 (C-Shunt inhibitor), lysis of human erythrocytes by cobra venom factor; type: cell-based; settings: serial twofold dilution assay; higher well number indicates higher activity
Description: as §1, §2, §3

[6] = tested on: human serum complement; settings: in vitro and in vivo; cited from earlier work

T1 sequence (P09871 16-688): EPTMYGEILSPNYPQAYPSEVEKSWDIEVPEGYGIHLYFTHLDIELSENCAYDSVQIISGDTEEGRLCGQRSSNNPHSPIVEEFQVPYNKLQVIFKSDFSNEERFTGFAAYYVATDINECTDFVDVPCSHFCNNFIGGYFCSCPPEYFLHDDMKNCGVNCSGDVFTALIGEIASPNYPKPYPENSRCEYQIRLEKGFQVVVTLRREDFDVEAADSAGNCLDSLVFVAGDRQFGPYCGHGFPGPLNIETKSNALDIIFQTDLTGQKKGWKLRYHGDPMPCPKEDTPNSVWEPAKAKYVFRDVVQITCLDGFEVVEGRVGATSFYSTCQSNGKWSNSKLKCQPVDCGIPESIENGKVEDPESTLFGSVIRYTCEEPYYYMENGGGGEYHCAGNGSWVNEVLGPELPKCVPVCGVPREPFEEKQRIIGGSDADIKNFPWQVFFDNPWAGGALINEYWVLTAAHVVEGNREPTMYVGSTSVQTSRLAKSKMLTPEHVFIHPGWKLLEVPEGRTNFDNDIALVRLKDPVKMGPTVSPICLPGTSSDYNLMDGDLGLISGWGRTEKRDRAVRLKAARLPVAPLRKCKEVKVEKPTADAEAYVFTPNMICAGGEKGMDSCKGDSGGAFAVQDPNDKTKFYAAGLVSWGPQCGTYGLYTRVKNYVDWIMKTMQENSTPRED
T1 sequence (P00736 18-705 partner): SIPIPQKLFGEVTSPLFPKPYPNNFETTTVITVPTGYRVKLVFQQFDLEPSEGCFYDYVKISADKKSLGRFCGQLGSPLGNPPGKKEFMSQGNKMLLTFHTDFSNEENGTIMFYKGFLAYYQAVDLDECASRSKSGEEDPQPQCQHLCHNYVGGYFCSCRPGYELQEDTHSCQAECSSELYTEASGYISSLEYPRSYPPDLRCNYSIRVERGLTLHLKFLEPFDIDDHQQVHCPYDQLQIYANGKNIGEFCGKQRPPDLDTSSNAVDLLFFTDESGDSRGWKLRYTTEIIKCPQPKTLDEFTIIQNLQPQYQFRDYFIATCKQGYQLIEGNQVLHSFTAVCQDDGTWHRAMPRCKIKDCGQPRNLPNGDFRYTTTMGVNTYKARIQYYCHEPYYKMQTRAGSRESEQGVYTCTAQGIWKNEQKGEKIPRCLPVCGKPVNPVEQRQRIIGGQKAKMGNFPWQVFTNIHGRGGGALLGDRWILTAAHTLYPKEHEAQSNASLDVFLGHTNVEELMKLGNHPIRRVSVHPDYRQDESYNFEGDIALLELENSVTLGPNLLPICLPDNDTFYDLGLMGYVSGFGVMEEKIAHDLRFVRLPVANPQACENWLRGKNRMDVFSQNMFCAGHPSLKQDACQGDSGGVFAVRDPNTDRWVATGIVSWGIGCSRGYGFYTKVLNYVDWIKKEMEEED
T1 sequence (P02745 23-245 partner): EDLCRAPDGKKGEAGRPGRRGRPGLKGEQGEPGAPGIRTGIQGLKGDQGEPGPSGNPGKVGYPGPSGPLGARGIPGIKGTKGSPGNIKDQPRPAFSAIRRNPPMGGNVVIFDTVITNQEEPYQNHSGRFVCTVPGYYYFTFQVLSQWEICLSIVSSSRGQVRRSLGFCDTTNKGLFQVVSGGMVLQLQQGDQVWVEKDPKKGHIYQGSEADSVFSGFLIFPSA
T1 sequence (P02746 28-253 partner): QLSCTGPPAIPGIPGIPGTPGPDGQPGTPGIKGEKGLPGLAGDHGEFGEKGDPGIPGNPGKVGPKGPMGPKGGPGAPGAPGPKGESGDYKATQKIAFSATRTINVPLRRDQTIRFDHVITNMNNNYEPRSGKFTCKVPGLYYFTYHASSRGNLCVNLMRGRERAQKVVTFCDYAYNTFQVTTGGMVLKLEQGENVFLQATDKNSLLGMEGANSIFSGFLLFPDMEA
T1 sequence (P02747 29-245 partner): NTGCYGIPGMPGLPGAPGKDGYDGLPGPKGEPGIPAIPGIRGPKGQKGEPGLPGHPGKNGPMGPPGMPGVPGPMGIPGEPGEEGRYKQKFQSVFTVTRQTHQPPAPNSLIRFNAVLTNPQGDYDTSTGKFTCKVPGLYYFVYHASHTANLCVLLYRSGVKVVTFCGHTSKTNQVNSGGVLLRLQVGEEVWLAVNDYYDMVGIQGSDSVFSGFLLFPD

Nc1ccc2cc(S(=O)(=O)[O-])cc(O)c2c1N=Nc1ccc(NC(=O)Nc2ccc(N=Nc3c(N)ccc4cc(S(=O)(=O)[O-])cc(O)c34)c(S(=O)(=O)[O-])c2)cc1S(=O)(=O)[O-].[Na+].[Na+].[Na+].[Na+] [chlorazol fast pink, 3,3'-ureylenebis[6-(2-amino-8-hydroxy-6-sulfo-1-naphthylazo)benzenesulfonic acid], tetrasodium salt]
anticomplementary effect [1]: anticomplementary effect

NCCCCCC(=O)O [epsilon-aminocaproic acid]
success in the treatment of hereditary angioneurotic edema [2]: used with success in the treatment of hereditary angioneurotic edema

O=S(=O)(O)OC[C@H]1O[C@H](OC[C@H]2O[C@@H](OC[C@H]3O[C@H](OC[C@H]4O[C@H](OS(=O)(=O)O)[C@H](OS(=O)(=O)O)[C@@H](OS(=O)(=O)O)[C@@H]4OS(=O)(=O)O)[C@H](OS(=O)(=O)O)[C@@H](OS(=O)(=O)O)[C@H]3OS(=O)(=O)O)[C@H](OS(=O)(=O)O)[C@@H](OS(=O)(=O)O)[C@@H]2OS(=O)(=O)O)[C@H](OS(=O)(=O)O)[C@@H](OS(=O)(=O)O)[C@H]1OS(=O)(=O)O [gal →1α,6 glc → 1β,6 gal →1α,6 glc tetradecakis (H-sulfate),] [Gal 1α,6 glc 1β,6 gal 1α,6 glc tetradecakis (H-sulfate), tetradecasodium salt]
C1 026* Wells [3]: +9 Wells
C-Late 035* Wells [4]: +1 Wells
Shunt Inhibition 036* Wells [5]: +6 Wells

NC[C@H]1CC[C@H](C(=O)O)CC1 [tranexamic acid]
success in the treatment of hereditary angioneurotic edema [2]: used with success in the treatment of hereditary angioneurotic edema

heparin
anticomplementary effect [1]: anticomplementary effect

pentosan-polysulfoester
anticomplementary activity on human serum, as judged by the reduction in total hemolytic complement activity [6]: anticomplementary activity on human serum, both in vitro and in vivo
